According to the RepoRT retention time repository (doi:10.1021/acs.analchem.2c02893):

Experiment: RP, Thermo Scientific Acclaim RSLC 120 C18, 100 × 2.1 mm, 2.2 µm, 30 °C, 0.2 mL/min, estimated dead time 1.1 min; A: 90% water + 10% methanol + 0.01% formic acid + 5 mM ammonium formate, pH 3.61; B: methanol + 0.01% formic acid + 5 mM ammonium formate, pH 3.61; gradient (min/%B) 0/1 1/1 2/39 13/99.9 15/99.9 15.1/1 20.1/1
Conditions: stereoisomer not certain

LC retention time	SMILES
8 min	CCC1OC(=O)C(C)C(OC2CC(C)(OC)C(O)C(C)O2)C(C)C(OC2OC(C)CC(N(C)C)C2O)C(C)(O)CC(C)C(=O)C(C)C(O)C1(C)O (stereo not drawn) [Erythromycin]
6.08 min	Cc1ccccc1N1C(=O)c2cc(S(N)(=O)=O)c(Cl)cc2NC1C (stereo not drawn) [Metolazone]
3.98 min	NCCCCC(NC(CCc1ccccc1)C(=O)O)C(=O)N1CCCC1C(=O)O (stereo not drawn) [Lisinopril]
6.56 min	CN(C)CCC(c1ccc(Br)cc1)c1ccccn1 (stereo not drawn) [Brompheniramine]
8.69 min	CC12CCC3c4ccc(O)c(O)c4CCC3C1CCC2=O (stereo not drawn)
8.11 min	CCCc1nc(C)c2c(=O)[nH]c(-c3cc(S(=O)(=O)N4CCN(CC)CC4)ccc3OCC)nn12 [Vardenafil]
6.24 min	CCCOc1ccc(C(=O)CCN2CCCCC2)cc1 [Propipocaine]
6.28 min	CC(=O)Oc1c(C)cc(OCC(O)CNC(C)C)c(C)c1C (stereo not drawn) [Metipranolol]
4.51 min	CCCc1cc(=O)[nH]c(=S)[nH]1 [Propylthiouracil]
5.28 min	CCCCN(CCCC)CCCC [Tributylamine]
5.37 min	O=C(NC1CCN(CCc2c[nH]c3ccccc23)CC1)c1ccccc1 [Indoramin]
9.27 min	O=C(Nc1ccc(Cl)cc1C(O)c1ccccc1)c1ccncc1 (stereo not drawn) [Inabenfide]
10.1 min	C1=Cc2ccccc2Nc2ccccc21 [Iminostilbene]
8.43 min	CSc1nc(N)nc(NC(C)(C)C)n1 [Irgarol-descyclopropyl]
3.43 min	CC(=O)Nc1ccc(O)c(C(=O)O)c1 [N-Acetyl mesalazine]
10.7 min	CCC1=C(C)CN(C(=O)NCCc2ccc(S(=O)(=O)NC(=O)NC3CCC(C)CC3)cc2)C1=O (stereo not drawn) [Glimepiride]
6.56 min	CN(C)CC=C(c1ccc(Br)cc1)c1cccnc1 [Zimelidine]
3.88 min	CC(CCCNCCO)Nc1ccnc2cc(Cl)ccc12 (stereo not drawn) [Chloroquine-Desethylhydroxy]
6.86 min	CC(C1=C(CCN(C)C)Cc2ccccc21)c1ccccn1 (stereo not drawn) [Dimetindene]
10.6 min	CCCc1nn(C)c2c(=S)nc(-c3cc(S(=O)(=O)N4CCN(C)CC4)ccc3OCC)[nH]c12 [Sildenafil-Thio]
5.67 min	CN1CCOC(c2ccccc2)c2ccccc2C1 (stereo not drawn) [Nefopam]
5.46 min	CC(C)N(C(=O)CS(=O)(=O)O)c1ccccc1 [Propachlor-ESA]
5.06 min	OC(Cn1cncn1)(Cn1cncn1)c1ccc(F)cc1F [Fluconazole]

LC retention time	SMILES
6.9 min	Cc1onc(-c2ccccc2)c1C(=O)NC1C(=O)N2C1SC(C)(C)C2C(=O)O (stereo not drawn) [Oxacillin]
1.36 min	Nc1ccc(S(=O)(=O)O)c(N)c1 [2,4-Diaminobenzenesulfonic acid]
10.3 min	CCCc1nc2c(C)cc(-c3nc4ccccc4n3C)cc2n1Cc1ccc(-c2ccccc2C(=O)O)cc1 [Telmisartan]
6.76 min	CCOC(=O)C1=CC(OC(CC)CC)C(NC(C)=O)C(N)C1 (stereo not drawn) [Oseltamivir]
3.79 min	CC(NCCc1ccc(O)cc1)C(O)c1ccc(O)cc1 (stereo not drawn) [Ritodrine]
7.88 min	CCCc1nn(C)c2c(=O)[nH]c(-c3cc(S(=O)(=O)N4CCN(C)CC4)ccc3OCC)nc12 [Sildenafil]
6.16 min	CN(C)CCOC(=O)C(c1ccccc1)C1(O)CCCC1 (stereo not drawn) [Cyclopentolate]
5.66 min	C=CCOc1ccccc1OCC(O)CNC(C)C (stereo not drawn) [Oxprenolol]
7.16 min	COC(=O)c1ccc(C)cc1C1=NC(C)(C(C)C)C(=O)N1 (stereo not drawn) [Imazamethabenz-methyl]
10.5 min	CCCc1nn(C)c2c(=S)nc(-c3cc(S(=O)(=O)N4CCN(CCO)CC4)ccc3OCC)[nH]c12 [Sildenafil-Hydroxythiohomo]
6.79 min	CCN(CCCCOC(=O)c1ccc(OC)c(OC)c1)C(C)Cc1ccc(OC)cc1 (stereo not drawn) [Mebeverine]
7.03 min	O=C(NCC1CN(c2ccc(N3CCOCC3=O)cc2)C(=O)O1)c1ccc(Cl)s1 (stereo not drawn) [Rivaroxaban]
9.19 min	CCCSc1ccc2nc(NC(=O)OC)[nH]c2c1 [Albendazole]
9.16 min	CCC1OC(=O)C(C)C(OC2CC(C)(OC)C(O)C(C)O2)C(C)C(OC2OC(C)CC(NC)C2O)C(C)(OC)CC(C)C(=O)C(C)C(O)C1(C)O (stereo not drawn) [Clarithromycin-N-desmethyl]
7.34 min	CCc1cccc(C)c1N(C(=O)CS(=O)(=O)O)C(C)COC (stereo not drawn) [Metolachlor-ESA]
9.35 min	CC(=O)CC(c1ccccc1)c1c(O)c2ccccc2oc1=O (stereo not drawn) [Warfarin]
4.75 min	COc1cc(NS(=O)(=O)c2ccc(N)cc2)ncn1 [Sulfamonomethoxine]
6.89 min	CCN(CC)C(=O)C(C#N)=Cc1cc(O)c(O)c([N+](=O)[O-])c1 [Entacapon]
8.31 min	CC(CN(C)C)CN1c2ccccc2CCc2ccccc21 (stereo not drawn) [Trimipramine]
3.43 min	CNS(=O)(=O)Cc1ccc2[nH]cc(CCN(C)C)c2c1 [Sumatriptan]
4.08 min	CCCC1CC(C(=O)NC(C(C)O)C2OC(SC)C(O)C(O)C2O)N(C)C1 (stereo not drawn) [Lincomycin]
6.16 min	O=C(CCCN1CC=C(n2c(=O)[nH]c3ccccc32)CC1)c1ccc(F)cc1 [Droperidol]

SMILES	LC retention time
O=C(Nc1ccccc1)Nc1ccnc(Cl)c1 [Forchlorfenuron]	8.53 min
COC(=O)c1sccc1S(=O)(=O)NC(=O)Nc1nc(C)nc(OC)n1 [Thifensulfuron-methyl]	6.24 min
CN(C)CCc1c[nH]c2cccc(O)c12 [Psilocin]	3.29 min
COc1cc(CC(C)N)c(OC)cc1C (stereo not drawn) [DOM (2.5-Dimethoxy-4-methylamphetamine)]	5.83 min
CCCCOCN(C(=O)CCl)c1c(CC)cccc1CC [Butachlor]	12.3 min
C=C(c1ccccc1OCc1cccc(Cl)c1)n1ccnc1 [Croconazole]	10.7 min
CCCSP(=S)(OCC)Oc1ccc(Cl)cc1Cl (stereo not drawn) [Tokuthion (Prothiophos)]	13.6 min
CNC(=N[N+](=O)[O-])NCC1CCOC1 (stereo not drawn) [Dinotefuran]	3.59 min
CCCCCn1cc(C(=O)Cc2ccccc2C)c2ccccc21 [JWH-251]	12.2 min
CC=C1CC(C)C(O)(CO)C(=O)OCC2=CC[N+]3([O-])CCC(OC1=O)C23 (stereo not drawn) [Retrorsine-N-oxide]	4.33 min
CCC(=O)Nc1ccc(Cl)c(Cl)c1 [Propanil]	9.38 min
CCOC(=O)CC(SP(=O)(OC)OC)C(=O)OCC (stereo not drawn) [Malaoxon]	7.01 min
CCN(CC)C(=O)C(Cl)=C(C)OP(=O)(OC)OC [Phosphamidon (Dimecron)]	6.27 min
CCCCn1cc(C(=O)c2cccc3ccccc23)c2c(O)cccc21 [JWH-073-M-4-OH-Ind]	12 min
CCCCCn1cc(C(=O)c2ccc(Cl)c3ccccc23)c2ccccc21 [JWH-398]	13.3 min
O=C(Nc1ccccc1)N(Cc1ccc(Cl)cc1)C1CCCC1 [Pencycuron]	11.4 min
Cc1ccc(C(=O)c2cn(CCCCCO)c3ccccc23)c2ccccc12 [JWH-122-M-N-5-OH-Pentyl]	10.6 min
O=c1oc2ccccc2c(O)c1C(CC(O)c1ccc(-c2ccc(Br)cc2)cc1)c1ccccc1 (stereo not drawn) [Bromadiolone]	11.5 min
CSC(=O)c1c(C(F)F)nc(C(F)(F)F)c(C(=O)SC)c1CC(C)C [Dithiopyr]	11.7 min

SMILES	LC retention time
CC(C)OP(=O)(OC(C)C)SCc1ccccc1 [Iprobenfos]	10.6 min
CC1=C(C(=O)Nc2ccccc2)SCCO1 [Carboxin]	7.46 min
C=CCC1(C(C)C#CCC)C(=O)NC(=O)N(C)C1=O (stereo not drawn) [Methohexital]	9.09 min
COCC1CN=C(c2ccccc2Cl)c2cc(Br)ccc2N1C (stereo not drawn) [Metaclazepam]	11.6 min
OCc1ncc2n1-c1ccc(Cl)cc1C(c1ccccc1F)=NC2 [Midazolam -1-Hydroxy]	8.44 min
CC1(C)C(C(=O)c2cn(CC3CCOCC3)c3ccccc23)C1(C)C [A-834.735]	11.4 min
C[N+]1(C)C2CC(OC(=O)C(CO)c3ccccc3)CC1C1OC12 (stereo not drawn) [Scopolamine-Methyl]	3.88 min
COC(=O)NC(=S)Nc1ccccc1NC(=S)NC(=O)OC [Thiophanate-methyl]	6.93 min
CC1CCCCC1NC(=O)Nc1ccccc1 (stereo not drawn) [Siduron]	9.37 min
COP(=S)(OC)Oc1c(Cl)cc(C)cc1Cl [Tolclofos-methyl]	11.4 min
COP(=O)(OC)OC(=CCl)c1cc(Cl)c(Cl)cc1Cl [Tetrachlorvinphos (Stirofos)]	10.6 min
CC1CC(C)C(=O)C(C(O)CC2CC(=O)NC(=O)C2)C1 (stereo not drawn) [Cycloheximide]	5.99 min
CCOP(=S)(OCC)SCSC(C)(C)C [Terbufos]	12.2 min
CCCCN(CCCC)SN(C)C(=O)Oc1cccc2c1OC(C)(C)C2 [Carbosulfan]	13.8 min
N#Cc1nn(-c2c(Cl)cc(C(F)(F)F)cc2Cl)c(N)c1S(=O)(=O)C(F)(F)F [Fipronil-sulfone]	11 min
CC(C)(C)C(=O)C(Oc1ccc(Cl)cc1)n1cncn1 (stereo not drawn) [Triadimefon]	9.68 min
COc1ccc(N)cc1N [4-Methoxy-1.3-phenylenediamine]	2.37 min
O=C(OC1CC2CCC(C1)[N+]21CCCC1)C(O)(c1ccccc1)c1ccccc1 (stereo not drawn) [Trospium]	5.72 min
COP(=O)(NC(C)=O)SC (stereo not drawn) [Acephate]	3.11 min
